Residues, ends and D or L forms follow the SMILES beside them.
Experiments:
wild-type SmDPP7 = test: Isothermal titration calorimetry of dipeptide binding; set-up: species or system Stenotrophomonas maltophilia; conditions: ITC, 50 mM sodium phosphate pH 7.0, 2.5% dimethyl sulfoxide, 25 °C
Description: Figure 6 Thermodynamic parameters of dipeptide binding of SmDPP7. The value of thermodynamic parameters is represented in Table S3. The dissociation constant (Kd) and heats of binding (ΔH) were obtained using MICROCAL PEAQ-ITC Analysis software (Malvern, UK). Gibbs free energy (ΔG) and entropy energy (ΔS) were calculated according to the equation, ΔG = − RT ln Ka = RT ln Kd (Ka = 1/ Kd, association constants). Standard deviations were obtained from three independent experiments.
The bindings were analysed using a MICROCAL PEAQ-ITC microcalorimeter (Malvern, UK). The binding reactions were performed in 50 mM sodium phosphate pH 7.0 and 2.5% dimethyl sulfoxide at 25 °C and were stirred at 750 rpm. A single injection of 0.4 μl and 19 times injections of 2.0 μl of the dipeptide solution were injected into 350 μl of enzyme solution (wild-type SmDPP7). The wild-type SmDPP7 concentration was 25 µM and the concentration of each dipeptide solution was 250 µM in reaction buffer. Each injection was performed for 4 s with an interval of 150 s between injections. The dissociation constant (Kd) and heats of binding (ΔH) were obtained using MICROCAL PEAQ-ITC Analysis software (Malvern, UK). Gibbs free energy (ΔG) values were calculated according to ΔG = − RT ln Ka = RT ln Kd (Ka = 1/ Kd, association constants).

SmDPP7 = test: Inhibition assay using dipeptide library, Tyr-Tyr-MCA hydrolysis; assay type: biochemical, Stenotrophomonas maltophilia; conditions: for Ki: Xaa-Tyr as competitive inhibitor, substrate 200 µM Tyr-Tyr-MCA, pH 7.0, 298 K, Ki from IC50 by Cheng-Prusoff
Description: Figure 1 Effect of Xaa-Tyr dipeptides on the hydrolytic activity of SmDPP7 towards synthetic substrate Tyr-Tyr-MCA. Inhibition assay was performed as described in “Materials and methods”. Residual activity was measured under conditions where 200 µM Xaa-Tyr dipeptide and 200 µM Tyr-Tyr-MCA, synthetic substrate were added into the reaction solution. […] The standard deviations were obtained from three independent experiments.
The dipeptide library was purchased from AnaSpec (Fremont, CA, US). Ile-Tyr and Arg-Tyr were synthesized by Eurofins Genomics (Tokyo, Japan). Cys-Tyr and Cys-Asp could not be purchased commercially. Different concentrations (3.13, 6.25, 12.5, 25, 50, 100, and 200 µM) of dipeptides as the inhibitor and 200 µM Tyr-Tyr-MCA (GenScript, NJ, US) as the substrate for DPP7 were added into a reaction buffer consisting of 50 mM sodium phosphate buffer pH 7.0, 5 mM EDTA and 0.005% Tween 20. For DPP11s, different concentrations (1.56, 3.13, 6.25, 12.5, 25, 50, and 100 µM) of dipeptides as the inhibitor and 100 µM Leu-Asp-MCA (Peptide Institute, Osaka, Japan) as the substrate were used. The enzyme reaction was performed at 298 K for 20 min and standard deviations were calculated from three independent experiments. Half-maximal inhibitory concentration (IC50) values were determined by fitting to a sigmoid curve (4-parameter logistic curve) using ImageJ software[35] and inhibition constants (Ki) were calculated using the Cheng-Prusoff Equation[36]. The fluorescence intensity of the released MCA was measured with the same method of determination of kinetics parameters toward dipeptidyl MCA.

Molecule | Kd (wild-type SmDPP7) [µM] | Ki (SmDPP7) [µM] | Effect on hydrolytic activity of SmDPP7 (residual activity) (SmDPP7; 200 µM Xaa-Tyr dipeptide and 200 µM Tyr-Tyr-MCA, Fig. 1)
CC(C)[C@H](N)C(=O)N[C@@H](Cc1ccc(O)cc1)C(=O)O [Val-Tyr] (H-Val-Tyr-OH) | > 40 | 55.2 ± 0.5 | –
Tyr-Tyr | 6.17 ± 0.39 | 7.66 ± 1.27 | markedly inhibited

Reference: publication PMC8041751, “Structural basis for an exceptionally strong preference for asparagine residue at the S2 subsite of Stenotrophomonas maltophilia dipeptidyl peptidase 7” (Scientific Reports, 2021)
